In patent US20250002507A1, “7,8-DIHYDRO-5H-1,6-NAPHTHYRIDINE DERIVATIVES AS POSITIVE ALLOSTERIC MODULATORS OF THE MUSCARINIC ACETYLCHOLINE RECEPTOR M4 FOR TREATING NEUROLOGICAL AND PSYCHIATRIC DISORDERS” (Vanderbilt University, priority 2021, published 2025) one finds Emax and EC50 data, which are given here for 26 compounds.

The target in the experiment is T1, Human M4 (Homo sapiens, UniProt P08173).
T1 construct: expressed in transfected cells
T1 sequence (P08173 1-479): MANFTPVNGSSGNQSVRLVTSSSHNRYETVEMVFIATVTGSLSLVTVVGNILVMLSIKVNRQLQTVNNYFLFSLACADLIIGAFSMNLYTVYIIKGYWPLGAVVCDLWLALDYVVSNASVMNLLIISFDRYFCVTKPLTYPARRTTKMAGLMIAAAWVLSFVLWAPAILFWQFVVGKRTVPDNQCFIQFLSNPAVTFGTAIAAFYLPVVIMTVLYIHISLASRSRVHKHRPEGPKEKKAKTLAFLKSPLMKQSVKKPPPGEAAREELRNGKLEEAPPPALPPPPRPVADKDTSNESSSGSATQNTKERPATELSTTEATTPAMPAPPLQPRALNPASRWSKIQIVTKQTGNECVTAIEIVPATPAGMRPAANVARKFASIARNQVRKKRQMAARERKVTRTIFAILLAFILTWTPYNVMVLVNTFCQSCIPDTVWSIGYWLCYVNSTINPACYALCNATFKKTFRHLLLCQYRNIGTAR
The experiment in a line: mAChR M4 cell-based functional assay (calcium flux, potentiation of EC20 acetylcholine response), hM4-Gqi5 CHO-K1 cells. Particulars: Table 3; for Emax at 30 µM: CHO-K1, Human M4, % ACh maximum at 30 μM, read-out: Emax (% ACh maximum at 30 μM); for EC50: potentiation of EC20 acetylcholine response, calcium flux, CHO-K1 cells, read-out: Human M4 EC50. The method in brief:
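CHO-K1 cells stably expressing human M4 with chimeric Gqi5, loaded with Fluo-4 AM 50 min at 37 °C; calcium flux read by FDSS. 11-point 1:3 compound curves added, then EC20 acetylcholine at 144 s; potentiation of the EC20 response fitted by four-parameter logistic to give EC50 and Emax.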
In general terms: Calcium flux is commonly read through the fluorescence of an indicator in the cells.

As a reminder, the Emax is the size of the effect at its maximum, as opposed to the concentration needed. By EC50 is commonly meant the midpoint of the concentration-response curve.

Consider `COc1cnc(Cl)c(-c2cnc3c(c2)CN(c2nn4cnnc4c(C)c2C)CC3)c1` [Compound 178, 3-(2-chloro-5-methoxypyridin-3-yl)-6-(7,8-dimethyl-[1,2,4]triazolo[4,3-b]pyridazin-6-yl)-5,6,7,8-tetrahydro-1,6-naphthyridine], for which the Emax at 30 µM was 85% and the half-maximal effective concentration (EC50) was determined as 578 nM.
Take `COc1ncc(F)cc1-c1cnc2c(c1)CN(c1nn3cnnc3c(C)c1C)CC2` [Compound 179, 6-(7,8-dimethyl-[1,2,4]triazolo[4,3-b]pyridazin-6-yl)-3-(5-fluoro-2-methoxypyridin-3-yl)-5,6,7,8-tetrahydro-1,6-naphthyridine]: the Emax at 30 µM stood at 84% and the EC50 is 906 nM.
For the compound `Cc1c(N2CCc3ncc(-c4ccc(N(C)C)nc4)cc3C2)nn2cnnc2c1C` [Compound 180, 5-(6-(7,8-dimethyl-[1,2,4]triazolo[4,3-b]pyridazin-6-yl)-5,6,7,8-tetrahydro-1,6-naphthyridin-3-yl)-N,N-dimethylpyridin-2-amine], the Emax at 30 µM amounted to 74% and the EC50 was found to be 284 nM.
On the same counts, the results for `Cc1c(N2CCc3ncc(-c4cc(F)cnc4Cl)cc3C2)nn2cnnc2c1C` [Compound 181, 3-(2-chloro-5-fluoropyridin-3-yl)-6-(7,8-dimethyl-[1,2,4]triazolo[4,3-b]pyridazin-6-yl)-5,6,7,8-tetrahydro-1,6-naphthyridine] are 95% and 539 nM.
`Cc1c(N2CCc3ncc(-c4cccnc4OC(C)C)cc3C2)nn2cnnc2c1C` [Compound 182, 6-(7,8-dimethyl-[1,2,4]triazolo[4,3-b]pyridazin-6-yl)-3-(2-isopropoxypyridin-3-yl)-5,6,7,8-tetrahydro-1,6-naphthyridine]: the Emax at 30 µM worked out at 42% and the EC50 was determined as 1100 nM.
For the compound `Cc1c(N2CCc3ncc(-c4cccnc4F)cc3C2)nn2cnnc2c1C` [Compound 183, 6-(7,8-dimethyl-[1,2,4]triazolo[4,3-b]pyridazin-6-yl)-3-(2-fluoropyridin-3-yl)-5,6,7,8-tetrahydro-1,6-naphthyridine], the maximal effect (Emax) at 30 µM worked out at 93% and the EC50 was found to be 695 nM.
Taken in the same sequence, the figures for `CC(=O)c1cnc2c(c1)CN(c1nn3cnnc3c(C)c1C)CC2` [Compound 184, 1-(6-(7,8-dimethyl-[1,2,4]triazolo[4,3-b]pyridazin-6-yl)-5,6,7,8-tetrahydro-1,6-naphthyridin-3-yl)ethan-1-one] were 96% and 704 nM.
For the compound `Cc1c(N2CCc3ncc(-c4ccc(N5CCCCC5)nc4)cc3C2)nn2cnnc2c1C` [Compound 185, 6-(7,8-dimethyl-[1,2,4]triazolo[4,3-b]pyridazin-6-yl)-3-(6-(piperidin-1-yl)pyridin-3-yl)-5,6,7,8-tetrahydro-1,6-naphthyridine], the maximal effect (Emax) at 30 µM is 86% and the EC50 stood at 333 nM.
On to `Cc1c(N2CCc3ncc(-c4ccc(N5CCOCC5)nc4)cc3C2)nn2cnnc2c1C` [Compound 186, 4-(5-(6-(7,8-dimethyl-[1,2,4]triazolo[4,3-b]pyridazin-6-yl)-5,6,7,8-tetrahydro-1,6-naphthyridin-3-yl)pyridin-2-yl)morpholine], for which the maximal response (Emax) at 30 µM worked out at 100% and the concentration giving a half-maximal response (EC50) was determined as 142 nM.
Consider `Cc1c(N2CCc3ncc(-c4ccc(N5CCN(C)CC5)nc4)cc3C2)nn2cnnc2c1C` [Compound 187, 6-(7,8-dimethyl-[1,2,4]triazolo[4,3-b]pyridazin-6-yl)-3-(6-(4-methylpiperazin-1-yl)pyridin-3-yl)-5,6,7,8-tetrahydro-1,6-naphthyridine], for which the Emax at 30 µM is 104% and the EC50 worked out at 63 nM.
Taken in the same sequence, the figures for `Cc1cc2nccn2nc1N1CCc2ncc(C(F)(F)F)cc2C1` [Compound 188, 6-(7-methylimidazo[1,2-b]pyridazin-6-yl)-3-(trifluoromethyl)-5,6,7,8-tetrahydro-1,6-naphthyridine] were 69% and 523 nM.
On to `Cc1c(N2CCc3ncc(C(F)F)cc3C2)nn2cnnc2c1C` [Compound 189, 3-(difluoromethyl)-6-(7,8-dimethyl-[1,2,4]triazolo[4,3-b]pyridazin-6-yl)-5,6,7,8-tetrahydro-1,6-naphthyridine], for which the Emax at 30 µM stood at 103% and the EC50 is 90 nM.
On the same counts, the results for `Cc1cc2nncn2nc1N1CCc2ncc(Nc3ccnn3C)cc2C1` [Compound 190, N-(1-methyl-1H-pyrazol-5-yl)-6-(7-methyl-[1,2,4]triazolo[4,3-b]pyridazin-6-yl)-5,6,7,8-tetrahydro-1,6-naphthyridin-3-amine] are 102% and 234 nM.
Regarding `Cc1c(N2CCc3ncc(-c4ccc(-n5cccn5)nc4)cc3C2)nn2cnnc2c1C` [Compound 191, 3-(6-(1H-pyrazol-1-yl)pyridin-3-yl)-6-(7,8-dimethyl-[1,2,4]triazolo[4,3-b]pyridazin-6-yl)-5,6,7,8-tetrahydro-1,6-naphthyridine], the Emax at 30 µM was determined as 66% and the EC50 was 342 nM.
Take `Cc1c(N2CCc3ncc(-c4ccc(-n5ccnc5)nc4)cc3C2)nn2cnnc2c1C` [Compound 192, 3-(6-(1H-imidazol-1-yl)pyridin-3-yl)-6-(7,8-dimethyl-[1,2,4]triazolo[4,3-b]pyridazin-6-yl)-5,6,7,8-tetrahydro-1,6-naphthyridine]: the Emax at 30 µM was 72% and the EC50 is 281 nM.
Turning to `Cc1cc2nncn2nc1N1CCc2ncc(-c3ccns3)cc2C1` [Compound 193, 5-(6-(7-methyl-[1,2,4]triazolo[4,3-b]pyridazin-6-yl)-5,6,7,8-tetrahydro-1,6-naphthyridin-3-yl)isothiazole], the maximal response (Emax) at 30 µM amounted to 93% and the EC50 is 94 nM.
On the same counts, the results for `Cc1ncc(-c2cnc3c(c2)CN(c2nn4cnnc4cc2C)CC3)s1` [Compound 194, 2-methyl-5-(6-(7-methyl-[1,2,4]triazolo[4,3-b]pyridazin-6-yl)-5,6,7,8-tetrahydro-1,6-naphthyridin-3-yl)thiazole] are 88% and 292 nM.
For the compound `Cc1nc(C)c(-c2cnc3c(c2)CN(c2nn4cnnc4cc2C)CC3)s1` [Compound 195, 2,4-dimethyl-5-(6-(7-methyl-[1,2,4]triazolo[4,3-b]pyridazin-6-yl)-5,6,7,8-tetrahydro-1,6-naphthyridin-3-yl)thiazole], the Emax at 30 µM was 89% and the EC50 amounted to 200 nM.
On the same counts, the results for `Cc1cc2nncn2nc1N1CCc2ncc(-c3ccc(C(F)(F)F)nc3)cc2C1` [Compound 196, 6-(7-methyl-[1,2,4]triazolo[4,3-b]pyridazin-6-yl)-3-(6-(trifluoromethyl)pyridin-3-yl)-5,6,7,8-tetrahydro-1,6-naphthyridine] are 80% and 708 nM.
In the case of `Cc1cc2nncn2nc1N1CCc2ncc(-c3ccc(C4CC4)nc3)cc2C1` [Compound 197, 3-(6-cyclopropylpyridin-3-yl)-6-(7-methyl-[1,2,4]triazolo[4,3-b]pyridazin-6-yl)-5,6,7,8-tetrahydro-1,6-naphthyridine], the maximal effect (Emax) at 30 µM is 82% and the EC50 was determined as 176 nM.
In the case of `Cc1ccc(-c2cnc3c(c2)CN(c2nn4cnnc4cc2C)CC3)cn1` [Compound 198, 6-(7-methyl-[1,2,4]triazolo[4,3-b]pyridazin-6-yl)-3-(6-methylpyridin-3-yl)-5,6,7,8-tetrahydro-1,6-naphthyridine], the Emax at 30 µM was 93% and the EC50 amounted to 206 nM.
Take `Cc1cc2nncn2nc1N1CCc2ncc(-c3cccnc3)cc2C1` [Compound 199, 6-(7-methyl-[1,2,4]triazolo[4,3-b]pyridazin-6-yl)-3-(pyridin-3-yl)-5,6,7,8-tetrahydro-1,6-naphthyridine]: the Emax at 30 µM was found to be 84% and the EC50 turned out to be 334 nM.
On the same counts, the results for `Cc1c(N2CCc3ncc(C4CC4)cc3C2)nn2cnnc2c1C` [Compound 200, 3-cyclopropyl-6-(7,8-dimethyl-[1,2,4]triazolo[4,3-b]pyridazin-6-yl)-5,6,7,8-tetrahydro-1,6-naphthyridine] are 93% and 53 nM.
On to `Cc1c(N2CCc3ncc(Nc4ccnn4C)cc3C2)nn2c(C(F)(F)F)nnc2c1C` [Compound 201, 6-(7,8-dimethyl-3-(trifluoromethyl)-[1,2,4]triazolo[4,3-b]pyridazin-6-yl)-N-(1-methyl-1H-pyrazol-5-yl)-5,6,7,8-tetrahydro-1,6-naphthyridin-3-amine], for which the Emax at 30 µM came to 94% and the EC50 came out at 63 nM.
`COc1ccc(-c2cnc3c(c2)CN(c2nn4cnnc4cc2C)CC3)cn1` [Compound 202, 3-(6-methoxypyridin-3-yl)-6-(7-methyl-[1,2,4]triazolo[4,3-b]pyridazin-6-yl)-5,6,7,8-tetrahydro-1,6-naphthyridine]: the Emax at 30 µM turned out to be 95% and the EC50 stood at 227 nM.
Taken in the same sequence, the figures for `Cc1cc2nncn2nc1N1CCc2ncc(Nc3nsc4ncccc34)cc2C1` [Compound 203, N-(6-(7-methyl-[1,2,4]triazolo[4,3-b]pyridazin-6-yl)-5,6,7,8-tetrahydro-1,6-naphthyridin-3-yl)isothiazolo[5,4-b]pyridin-3-amine] were 35% and 82 nM.
